Among the data in patent US10040802B2, “Thienopyrazine inhibitors of IRAK4 activity” (MERCK SHARP & DOHME CORP., priority 2015, dated 2018) are IC50 values, retold here.

As a reminder, the IC50 is the midpoint of a concentration-inhibition curve. A low value points to greater potency in that assay.

Each structure is given as a SMILES string. Where a name gives a salt, the structure may show the parent alone.

GST tagged IRAK4, sequence (Q9NWZ3 whole entry): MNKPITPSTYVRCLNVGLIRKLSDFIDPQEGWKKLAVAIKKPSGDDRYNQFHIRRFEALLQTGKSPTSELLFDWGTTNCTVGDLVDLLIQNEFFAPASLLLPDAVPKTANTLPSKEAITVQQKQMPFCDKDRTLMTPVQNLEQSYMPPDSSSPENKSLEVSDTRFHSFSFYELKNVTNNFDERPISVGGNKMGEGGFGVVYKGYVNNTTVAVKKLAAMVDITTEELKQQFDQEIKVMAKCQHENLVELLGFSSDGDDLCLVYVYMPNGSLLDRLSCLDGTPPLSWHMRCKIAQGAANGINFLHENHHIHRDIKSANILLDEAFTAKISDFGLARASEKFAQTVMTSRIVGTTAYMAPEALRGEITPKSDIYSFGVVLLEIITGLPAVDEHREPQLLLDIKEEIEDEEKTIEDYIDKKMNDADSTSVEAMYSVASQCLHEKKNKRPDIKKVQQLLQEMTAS

The target in this assay is GST tagged IRAK4 (Homo sapiens (Human), UniProt Q9NWZ3). Nature of the assay: IRAK4 Kinase Assay (IMAP fluorescence polarization). The assay is classed as biochemical. The conditions noted are these: 0.5 nM GST tagged IRAK4, 100 μM ATP, 30 minutes at 25° C. How it is done:
The kinase activity of IRAK4 is determined by its ability to catalyze the phosphorylation of a fluorescent polypeptide substrate. The extent of phosphorylation is measured using the IMAP technology (Molecular Devices) where the phosphorylated fluorescent substrate binds to the large M(III)-based nanoparticles which reduces the rotational speed of the substrate and thus increases its fluorescent polarization (FP).
20 μL reaction mixture contains 10 mM TriHCl, pH 7.2, 0.5 nM GST tagged IRAK4 (SignalChem), 100 nM fluorescent peptide substrate (RP7030, Molecular Devices), 100 μM ATP, 1 mM DDT, 1 mM MgCl2, and 0.01% Tween 20. The reaction is initiated by the addition of ATP. After incubation for 30 minutes at 25° C., 60 μL of Progressive IMAP Reagent (Molecular Devices) is added to stop the reaction. Change in RP7030's FP is determined by a FP reader (Analyst HT, LJL BioSystems).
(In general: Polarisation of emitted light reports the rotation of a fluorescent probe.)
The compound `Cn1cc(NC(=O)c2csc3ncc(N4C[C@@H]5CC[C@H]4CN5)nc23)c(Cl)n1` (single isomer, unassigned) [Example 16, N-(3-chloro-1-methyl-1H-pyrazol-4-yl)-2-[(1S,4S)- or (1R,4R)-2,5-diazabicyclo[2.2.2]oct-2-yl]thieno[2,3-b] pyrazine-7-carboxamide trifluoroacetate] registered an IC50 of 73 nM.
The same measure for `Cn1cc(NC(=O)c2csc3ncc(N4C[C@H]5CC[C@@H]4CN5)nc23)c(Cl)n1` (single isomer, unassigned) [Example 17, N-(3-chloro-1-methyl-1H-pyrazol-4-yl)-2-[(1S,4S)- or (1R,4R)-2,5-diazabicyclo[2.2.2]oct-2-yl]thieno[2,3-b] pyrazine-7-carboxamide trifluoroacetate]: 15 nM; for `Cn1cc(NC(=O)c2csc3ncc(N4C[C@@H]5CC[C@H]4CN5)nc23)c(Br)n1` (single isomer, unassigned) [Example 19, N-(3-bromo-1-methyl-1H-pyrazol-4-yl)-2-[(1S,4S)- or (1R,4R)-2,5-diazabicyclo[2.2.2]oct-2-yl]thieno[2,3-b] pyrazine-7-carboxamide trifluoroacetate]: 70 nM; for `Cn1cc(NC(=O)c2csc3ncc(N4C[C@H]5CC[C@@H]4CN5)nc23)c(Br)n1` (single isomer, unassigned) [Example 20, N-(3-bromo-1-methyl-1H-pyrazol-4-yl)-2-[(1S,4S)- or (1R,4R)-2,5-diazabicyclo[2.2.2]oct-2-yl]thieno[2,3-b] pyrazine-7-carboxamide trifluoroacetate]: 19 nM.
In the case of `Cn1cc(NC(=O)c2csc3ncc(N4C[C@@H]5CC[C@H]4CN5)nc23)c(C(F)F)n1` (single isomer, unassigned) [Example 22, 2-[(1S,4S)- or (1R,4R)-2,5-diazabicyclo[2.2.2]oct-2-yl]-N-[3-(difluoromethyl)-1-methyl-1H-pyrazol-4-yl]thieno[2,3-b] pyrazine-7-carboxamide trifluoroacetate], the IC50 is 7 nM.
In turn, `Cn1cc(NC(=O)c2csc3ncc(N4C[C@H]5CC[C@@H]4CN5)nc23)c(C(F)F)n1` (single isomer, unassigned) [Example 23, 2-[(1S,4S)- or (1R,4R)-2,5-diazabicyclo[2.2.2]oct-2-yl]-N-[3-(difluoromethyl)-1-methyl-1H-pyrazol-4-yl]thieno[2,3-b] pyrazine-7-carboxamide trifluoroacetate] showed an IC50 of 1 nM.
The same measure for `Cn1cc(NC(=O)c2csc3ncc(N4C[C@@H]5CC[C@H]4CN5)nc23)c(C#N)n1` (single isomer, unassigned) [Example 26, N-(3-cyano-1-methyl-1H-pyrazol-4-yl)-2-[(1S,4S)- or (1R,4R)-2,5-diazabicyclo[2.2.2]oct-2-yl]thieno[2,3-b] pyrazine-7-carboxamide trifluoroacetate]: 46 nM; for `Cn1cc(NC(=O)c2csc3ncc(N4C[C@H]5CC[C@@H]4CN5)nc23)c(C#N)n1` (single isomer, unassigned) [Example 27, N-(3-cyano-1-methyl-1H-pyrazol-4-yl)-2-[(1S,4S)- or (1R,4R)-2,5-diazabicyclo[2.2.2]oct-2-yl]thieno[2,3-b] pyrazine-7-carboxamide trifluoroacetate]: 37 nM.
The same measure for `Cn1cc(NC(=O)c2csc3ncc(N[C@H]4CCCCNC4)nc23)c(C(F)(F)F)n1` (single isomer, unassigned) [Example 31, 2-[(3S)- or (3R)-azepan-3-ylamino]-N-[1-methyl-3-(trifluoromethyl)-1H-pyrazol-4-yl] thieno[2,3-b] pyrazine-7-carboxamide trifluoroacetate]: 7 nM.
Compound `Cn1cc(NC(=O)c2csc3ncc(N[C@@H]4CCCCNC4)nc23)c(C(F)F)n1` (single isomer, unassigned) [Example 33, 2-[(3S)- or (3R)-azepan-3-ylamino]-N-[3-(difluoromethyl)-1-methyl-1H-pyrazol-4-yl]thieno[2,3-b] pyrazine-7-carboxamide trifluoroacetate] displayed a concentration for half-maximal inhibition (IC50) of 0.2 nM.
`Cn1cc(NC(=O)c2csc3ncc(N[C@H]4CCCCNC4)nc23)c(C(F)F)n1` (single isomer, unassigned) [Example 34, 2-[(3S)- or (3R)-azepan-3-ylamino]-N-[3-(difluoromethyl)-1-methyl-1H-pyrazol-4-yl]thieno[2,3-b] pyrazine-7-carboxamide trifluoroacetate] displayed a concentration for half-maximal inhibition (IC50) of 2 nM.
In turn, `Cn1cc(NC(=O)c2csc3ncc(N[C@@H]4CCCCNC4)nc23)c(C(F)(F)F)n1` (single isomer, unassigned) [Example 38, 2-[(3S)- or (3R)-azepan-3-ylamino]-N-[1-methyl-3-(trifluoromethyl)-1H-pyrazol-4-yl]thieno[2,3-b] pyrazine-7-carboxamide trifluoroacetate] returned an IC50 of 0.6 nM.
`O=C(Nc1cscc1Br)c1csc2ncc(N3C[C@@H]4CC[C@H]3CN4)nc12` (single isomer, unassigned) [Example 46, N-(4-bromothiophen-3-yl)-2-[(1S,4S)- or (1R,4R)-2,5-diazabicyclo[2.2.2]oct-2-yl]thieno[2,3-b] pyrazine-7-carboxamide]: the IC50 stood at 812 nM.
With `O=C(Nc1cscc1Br)c1csc2ncc(N3C[C@H]4CC[C@@H]3CN4)nc12` (single isomer, unassigned) [Example 49, N-(4-bromothiophen-3-yl)-2-[(1S,4S)- or (1R,4R)-2,5-diazabicyclo[2.2.2]oct-2-yl]thieno[2,3-b] pyrazine-7-carboxamide trifluoroacetate], 213 nM corresponded to half-maximal inhibition (IC50).
The same measure for `O=C(Nc1cscc1C(F)F)c1csc2ncc(N3C[C@@H]4CC[C@H]3CN4)nc12` (single isomer, unassigned) [Example 58, 2-[(1S,4S)- or (1R,4R)-2,5-diazabicyclo [2.2.2]oct-2-yl]-N-[4-(difluoromethyl)thiophen-3-yl] thieno[2,3-b] pyrazine-7-carboxamide trifluoroacetate]: 285 nM; for `O=C(Nc1cscc1C(F)F)c1csc2ncc(N3C[C@H]4CC[C@@H]3CN4)nc12` (single isomer, unassigned) [Example 59, 2-[(1S,4S)- or (1R,4R)-2,5-diazabicyclo [2.2.2]oct-2-yl]-N-[4-(difluoromethyl)thiophen-3-yl] thieno[2,3-b] pyrazine-7-carboxamide trifluoroacetate]: 21 nM; for `O=C(Nc1ccsc1Cl)c1csc2ncc(N3C[C@@H]4CC[C@H]3CN4)nc12` (single isomer, unassigned) [Example 61, N-(2-chlorothiophen-3-yl)-2-[(1S,4S)- or (1R,4R)-2,5-diazabicylo[2.2.2]oct-2-yl]thieno[2,3-b] pyrazine-7-carboxamide trifluoroacetate]: 689 nM.
Compound `O=C(Nc1ccsc1Cl)c1csc2ncc(N3C[C@H]4CC[C@@H]3CN4)nc12` (single isomer, unassigned) [Example 62, N-(2-chlorothiophen-3-yl)-2-[(1S,4S)- or (1R,4R)-2,5-diazabicylo[2.2.2]oct-2-yl]thieno[2,3-b] pyrazine-7-carboxamide trifluoroacetate] displayed an IC50 of 274 nM.
`O=C(Nc1ccsc1Br)c1csc2ncc(N3C[C@@H]4CC[C@H]3CN4)nc12` (single isomer, unassigned) [Example 63, N-(2-bromothiophen-3-yl)-2-[(1S,4S)- or (1R,4R)-2,5-diazabicylo[2.2.2]oct-2-yl]thieno[2,3-b] pyrazine-7-carboxamide trifluoroacetate] came in with an IC50 of 324 nM.
The same measure for `O=C(Nc1ccsc1Br)c1csc2ncc(N3C[C@H]4CC[C@@H]3CN4)nc12` (single isomer, unassigned) [Example 64, N-(2-bromothiophen-3-yl)-2-[(1S,4S)- or (1R,4R)-2,5-diazabicylo[2.2.2]oct-2-yl]thieno[2,3-b] pyrazine-7-carboxamide trifluoroacetate]: 767 nM.
The compound `N#Cc1cscc1NC(=O)c1csc2ncc(N3C[C@@H]4CC[C@H]3CN4)nc12` (single isomer, unassigned) [Example 65, N-(4-cyanothiophen-3-yl)-2-[(1S,4S)- or (1R,4R)-2,5-diazabicylo[2.2.2]oct-2-yl]thieno[2,3-b] pyrazine-7-carboxamide formate] returned a half-inhibitory concentration (IC50) of 310 nM.
The figure for `N#Cc1cscc1NC(=O)c1csc2ncc(N3C[C@H]4CC[C@@H]3CN4)nc12` (single isomer, unassigned) [Example 66, N-(4-cyanothiophen-3-yl)-2-[(1S,4S)- or (1R,4R)-2,5-diazabicylo[2.2.2]oct-2-yl]thieno[2,3-b] pyrazine-7-carboxamide formate] is 220 nM.
The same measure for `N#Cc1sccc1NC(=O)c1csc2ncc(N3C[C@@H]4CC[C@H]3CN4)nc12` (single isomer, unassigned) [Example 69, N-(2-cyanothiophen-3-yl)-2-[(1S,4S)- or (1R,4R)-2,5-diazabicyclo[2.2.2]oct-2-yl]thieno[2,3-b] pyrazine-7-carboxamide trifluoroacetate]: 228 nM.
With `N#Cc1sccc1NC(=O)c1csc2ncc(N3C[C@H]4CC[C@@H]3CN4)nc12` (single isomer, unassigned) [Example 70, N-(2-cyanothiophen-3-yl)-2-[(1S,4S)- or (1R,4R)-2,5-diazabicyclo[2.2.2]oct-2-yl]thieno[2,3-b] pyrazine-7-carboxamide trifluoroacetate], the IC50 is 224 nM.
